Test results from patent US20100267825A1, “TREATMENT OF SKIN DAMAGE” (Eukarion, Inc., priority 2009, published 2010).

Key:
[1] = In vitro catalase activity (colorimetric peroxidase/ABTS-coupled assay); format: biochemical; conditions: relative to C7 (EUK-8) set at 100%, 10 μM compound, 100 μM hydrogen peroxide
Procedure: The catalase activity of SOD/Catalase mimetics used in the process was determined as previously described by Doctrow et al., 2002, J. Med. Chem. 45, 4549-4558. Briefly, catalase activity was measured by incubating the sample compound with hydrogen peroxide and determining the amount of hydrogen peroxide remaining after a period of time using a colorimetric peroxidase-coupled assay method. 10 μM sample compound and 100 μM hydrogen peroxide in 40 mM sodium phosphate pH 7.4 were incubated together at ambient temperature in a multi-well plate. After the desired reaction period had elapsed, 20 μl of peroxidase/ABTS reagent was added (peroxidase/ABTS reagent contained […] of 50 mM Na phosphate, pH 7.4, 1 mg horseradish peroxidase (1310 U/mg) and 1.6 g ABTS). After five minutes, absorbance at 750 nm was determined.
The amount of hydrogen peroxide remaining was calculated based on a standard curve. To compare rates of catalase reaction, the amount of hydrogen peroxide consumed at 20 minutes was determined.
(rate obtained for SOD/Catalase mimetic)/(rate obtained for C7 (EUK-8))×100%

[2] = test system: radiation-induced apoptosis; assay: Protection against radiation-induced apoptosis / anti-apoptotic activity; format: cell-based
[3] = Cytotoxicity; format: cell-based
[4] = salen-metal complexes, pH 7.4, hydrogen peroxide consumed at 20 minutes
[5] = orally bioavailable metalloporphyrin derivatives, pH 7.4, 20 minutes

Compound | Relative Catalase Rate [1, 4] [%] | also measured
CC(=O)[O-].COc1cc(Br)c([O-])c(C=Nc2ccccc2N=Cc2cc(OC)cc(Br)c2[O-])c1.[Mn+3] [C76] | 427 | –
CC(=NCCN=C(C)c1ccccc1[O-])c1ccccc1[O-].CC(=O)[O-].[Mn+3] [C85] | 31 | –
CC(=O)[O-].COc1ccc(C=NCCN=Cc2ccc(OC)cc2[O-])c([O-])c1.[Mn+3] [C33] | 38 | –
C1=Cc2nc1cc1ccc([n-]1)c(C1CC1)c1nc(cc3ccc([n-]3)c2C2CC2)C=C1.CC(=O)[O-].[Mn+3] [EUK-418, {[{(Porphine-5,15-diyl)bis[cyclopropyl-diyl]}] (2-)-N^21, N^22, N^23, N^24} manganese(III) acetate] | – | Relative Catalase Rate [1, 5]: 70%; protective effect against radiation-induced apoptosis (in words) [2]: protective effect against radiation-induced apoptosis
CC(=O)[O-].[Mn+3].[O-]c1c2cccc1OCCOCCOCCOc1cccc(c1[O-])C=Nc1ccccc1N=C2 [C82] | 345 | –
CC(=O)[O-].[Mn+3].[O-]c1ccccc1CNCCNCc1ccccc1[O-] [C83] | 42 | –
C1=Cc2nc1cc1ccc([n-]1)c(Cc1ccccc1)c1nc(cc3ccc([n-]3)c2Cc2ccccc2)C=C1.CC(=O)[O-].[Mn+3] [EUK-423, {[{(Porphine-5,15-diyl)bis[benzyl-diyl]}] (2-)-N^21, N^22, N^23, N^24} manganese(III) acetate] | – | Relative Catalase Rate [1, 5]: 56%; protective effect against radiation-induced apoptosis (in words) [2]: protective effect against radiation-induced apoptosis
C1=Cc2nc1cc1ccc([n-]1)c(C1CCOCC1)c1nc(cc3ccc([n-]3)c2C2CCOCC2)C=C1.[Cl-].[Mn+3] [EUK-451, {[{(Porphine-5,15-diyl)bis[4-Tetrahydropyrano-diyl]}](2-)-N^21, N^22, N^23, N^24} manganese(III) chloride] | – | Relative Catalase Rate [1, 5]: 140%; anti-apoptotic activity (in words) [2]: high; protective effect against radiation-induced apoptosis (in words) [2]: protective effect against radiation-induced apoptosis; cytotoxicity (in words) [3]: low
[Cl-].[Mn+3].[O-]c1ccccc1C=NCCN=Cc1ccccc1[O-] [C7 (EUK-8)] | 100 | –
CC(=O)[O-].[Mn+3].[O-]c1ccccc1C=NCCN=Cc1ccccc1[O-] [C31] | 92 | –
[Cl-].[Mn+3].[O-]c1c(F)cccc1C=NCCN=Cc1cccc(F)c1[O-] [C37] | 117 | –
[Cl-].[Mn+3].[O-]c1ccccc1CNCCNCc1ccccc1[O-] [C84] | 31 | –
COc1cccc(C=Nc2ccccc2N=Cc2cccc(OC)c2[O-])c1[O-].[Cl-].[Mn+3] [C81] | 493 | –
CC(=O)[O-].COc1ccc(-c2c3nc(cc4ccc([n-]4)c(-c4ccc(OC)cc4)c4nc(cc5ccc2[n-]5)C=C4)C=C3)cc1.[Mn+3] [EUK-450, {[{(Porphine-5,15-diyl)bis[benzene-1,4 diyl (4-methyl-oxy)]}](2-)-N^21, N^22, N^23, N^24} manganese(III) acetate] | – | Relative Catalase Rate [1, 5]: 84%; protective effect against radiation-induced apoptosis (in words) [2]: protective effect against radiation-induced apoptosis
CC(=O)[O-].[Mn+3].[O-]c1c(F)cccc1C=NCCN=Cc1cccc(F)c1[O-] [C36] | 128 | –
CC(=O)[O-].COc1cccc(C=NCCN=Cc2cccc(OC)c2[O-])c1[O-].[Mn+3] [C32] | 188 | –
CC(=O)[O-].COc1cc([O-])c(C=NCCN=Cc2c([O-])cc(OC)cc2OC)c(OC)c1.[Mn+3] [C35] | 25 | –
COc1cccc(C=NCCN=Cc2cccc(OC)c2[O-])c1[O-].[Cl-].[Mn+3] [C40 (EUK-134)] | 155 | –
COc1ccc(C=NCCN=Cc2ccc(OC)cc2[O-])c([O-])c1.[Cl-].[Mn+3] [C34] | 46 | –
C1=Cc2nc1cc1ccc([n-]1)c(C1CCCCC1)c1nc(cc3ccc([n-]3)c2C2CCCCC2)C=C1.[Cl-].[Mn+3] [EUK-452, {[{(Porphine-5,15-diyl)bis[cyclohexyl-diyl]}] (2-)-N^21, N^22, N^23, N^24} manganese(III) chloride] | – | Relative Catalase Rate [1, 5]: 105%; protective effect against radiation-induced apoptosis (in words) [2]: protective effect against radiation-induced apoptosis
CC(=O)[O-].CCc1c2nc(c(CC)c3ccc([n-]3)c(CC)c3nc(c(CC)c4ccc1[n-]4)C=C3)C=C2.[Mn+3] [EUK-425, (5,10,15,20-Tetraethylporphyrinato) manganese (III) acetate] | – | Relative Catalase Rate [1, 5]: 84%
